{"source": "paper PMC8776894", "about": "(Communications Biology, 2022)", "key": {"MCAO/R mice": {"system": "MCAO/R mice", "assay": "Morris water maze test", "assay_type": "in vivo, mouse", "conditions": "for Morris water maze latency to the platform (sheet block Fig.2h): individual animals", "experimental": "To evaluate the spatial learning and memory ability of mice, the Morris water maze was performed after MCAO/R at 11, 12, 13, 14, and 15 days as described previously with minor modifications[66],[67]. […] Three trials were performed per day with the platform present and continuously detected for 4 days. Data from those trials were shown as the latency to locate the hidden platform on each day and were in indirect proportion to spatial learning abilities. A single 60 s probe test was performed on each mouse on the final day of testing. The platform was withdrawn and each mouse was placed at the same starting position in the pool and allowed to swim for 60 s. The investigator then recorded the time spent in the target quadrant, where the platform had previously been located. The latter measurements were interpreted as spatial memory."}, "[1]": {"system": "MCAO/R mice, brain homogenate", "assay": "Biochemical kits, energy metabolism in brain (ATP, lactic acid)", "assay_type": "in vivo, mouse", "experimental": "Mice were sacrificed under ether anesthesia 3 days after stroke. The brain was collected, weighed, and placed in a homogenizer for homogenization. Using 0.9% normal saline (NS) as a homogenization medium, a 10% tissue homogenate was prepared, centrifuged at 3500 rpm for 10 min, and the supernatant was taken. […] Kits for ATP, glutamic acid, glutathione, lactic acid, LPO, MDA, and SOD were purchased from Nanjingjiancheng Bioengineering Institute, and were measured as previously described for specification."}, "HT22 cells (OGD/R) [2]": {"system": "HT22 cells (OGD/R)", "assay": "Intracellular ROS (DCFH-DA, flow cytometry)", "assay_type": "cell-based, mouse", "conditions": "24-h pretreatment with VK"}, "HT22 cells (OGD/R) [3]": {"system": "HT22 cells (OGD/R)", "assay": "Seahorse O2 consumption rate (OCR)", "assay_type": "cell-based, mouse", "conditions": "dose-dependent", "experimental": "HT22 cells were counted and plated at 8000 cells per well in a Seahorse XF96 Cell Culture Microplate for all experiments (Agilent). They were then treated with VK (0.0735 or 0.735 μM) for 24 h. […] Next, HT22 cells were washed after 24 h of incubation and were incubated in a 0% CO2 chamber at 37 °C for 1 h, before being placed into a Seahorse XFe96 Analyzer (Agilent). In OCR experiment, HT22 cells were treated, with 2 μM of oligomycin, 5 μM of FCCP, and 1 μM of rotenone and antimycin, respectively; to assess ECAR, they were treated with 1 μM of rotenone and antimycin and 50 mM of 2-DG. All OCR and ECAR data were normalized to cell number per well using WAVE (Agilent)."}, "BV2 cells (OGD/R)": {"system": "BV2 cells (OGD/R)", "assay": "qRT-PCR of proinflammatory mediators", "assay_type": "cell-based, mouse", "conditions": "RT-PCR"}, "[4]": {"system": "microglia in brain of MCAO/R mice", "assay": "IBA1 staining of microglia (IHC, immunofluorescence)", "assay_type": "in vivo, mouse"}, "HT22 cells (OGD/R) [5]": {"system": "HT22 cells (OGD/R)", "assay": "Annexin V-FITC/propidium iodide apoptosis", "assay_type": "cell-based, mouse", "conditions": "Annexin V-FITC/PI flow cytometry"}, "[6]": {"system": "neurons in brain of MCAO/R mice", "assay": "NeuN immunohistochemistry", "assay_type": "in vivo, mouse"}, "[7]": {"system": "primary cortical neurons and primary microglia", "assay": "Primary neuron and microglia co-culture, OGD/R, ELISA of proinflammatory factors", "assay_type": "cell-based, mouse", "experimental": "Histological analysis. Organs such as heart, liver, kidney, and brain were excised and fixed in 10% formaldehyde for histological analysis. Their organs were collected and fixed with 4% PFA for 12-18 h, followed by dehydrating using an automatic dehydrator (Leica ASP-300S, Germany) and embedding in paraffin. Then, each sample was coronally cut (4 µm) using a rotatory microtome (Leica RM2245, Germany). The […]\nPrimary culture of neuron and microglia. Primary cortical neurons (1.0 × 10^5 cells per well in poly-L-lysine-coated 24-well plate) were obtained from fetal C57BL/6 mice of embryonic day 16–17.5, as previously reported1. After careful removal of meninges, cortical tissues were digested in dulbecco's modified eagle medium (DMEM, Gibco) containing 0.05% trypsin (Gibco) at 37 °C for 20 min. DMEM containing 10% FBS (Gibco) was then added to terminate the digestion. The mixture was homogenized by pipetting 120 times and was subsequently filtered with a 100-μm cell strainer (Biologix) and centrifuged at 1000 rpm for 5 min. Then, the cells were collected and resuspended by DMEM supplemented with 10% FBS (Gibco) and penicillin-streptomycin (Gibco).\nThe suspension was seeded into 24-well plates (10^5 cells/ml), and 4 h later, the medium was changed with Neurobasal medium (Gibco) containing 1% […] and 2% B27 supplement. […]"}, "[8]": {"system": "HT22 hippocampal neuron cells", "assay": "CCK-8 cytotoxicity in HT22 cells", "conditions": "CCK8 assay"}}, "note": "Values joined by “and” are separate entries in the source; they are usually repeats but may differ in a detail not shown here. Equal values may be shown once.", "data": [{"substance": "Gly-Arg-Pro-Hyp-Gly-Phe-Ser-Pro-Phe-Arg-Ile-Asp [VK, Vespakinin-M]", "values": [{"measurement": "Morris water maze latency to the platform (sheet block Fig.2h)", "setting": "MCAO/R mice; 11d after MCAO/R, VK 150 µg/kg, 60 s maximum", "result": "46.96 and 55.37 and 56.98 and 48.52 and 58.61 and 60 and 58.12"}, {"measurement": "Morris water maze latency to the platform (sheet block Fig.2h)", "setting": "MCAO/R mice; 11d after MCAO/R, VK 300 µg/kg, 60 s maximum", "result": "51 and 55.8"}, {"measurement": "Morris water maze latency to the platform (sheet block Fig.2h)", "setting": "MCAO/R mice; 12d after MCAO/R, VK 150 µg/kg", "result": "35.17 and 36.55 and 38.29 and 31.14 and 35.03 and 46.91 and 50.97"}, {"measurement": "Morris water maze latency to the platform (sheet block Fig.2h)", "setting": "MCAO/R mice; 12d after MCAO/R, VK 300 µg/kg", "result": "43.25 and 49.34 and 39.87 and 44.13 and 49.62 and 33.65"}, {"measurement": "Morris water maze latency to the platform (sheet block Fig.2h)", "setting": "MCAO/R mice; 13d after MCAO/R, VK 150 µg/kg", "result": "12.69 and 22.64 and 25.57 and 20.24 and 33.84 and 30.46 and 33.85"}, {"measurement": "Morris water maze latency to the platform (sheet block Fig.2h)", "setting": "MCAO/R mice; 13d after MCAO/R, VK 300 µg/kg", "result": "24.06 and 46.35 and 29.58 and 38.44 and 42.39 and 44"}, {"measurement": "Morris water maze latency to the platform (sheet block Fig.2h)", "setting": "MCAO/R mice; 14d after MCAO/R, VK 150 µg/kg", "result": "8.5 and 15.36 and 20.6 and 19.38 and 15.89 and 10.11 and 29.75"}, {"measurement": "Morris water maze latency to the platform (sheet block Fig.2h)", "setting": "MCAO/R mice; 14d after MCAO/R, VK 300 µg/kg", "result": "18.28 and 40.48 and 16.15 and 23.59 and 39.68 and 25.37"}, {"measurement": "spatial learning, escape latency", "setting": "MCAO/R mice; day 11–14 after MCAO/R", "result": "decreased escape latency"}, {"measurement": "spatial memory, probe trial vs vehicle", "setting": "MCAO/R mice; day 15 after MCAO/R", "result": "more crossovers and spent more time in the platform quadrant"}, {"measurement": "LD content in brain vs vehicle", "setting": "[1]", "result": "lower LD content"}, {"measurement": "ATP activity in brain vs vehicle", "setting": "[1]; VK-treated groups", "result": "increased ATP activity"}, {"measurement": "OGD-induced ROS levels", "setting": "HT22 cells (OGD/R) [2]", "result": "rescue the OGD-induced ROS levels"}, {"measurement": "mitochondrial oxygen consumption rate in neurons", "setting": "HT22 cells (OGD/R) [3]", "result": "accelerated the mitochondrial oxygen consumption rate"}, {"measurement": "OGD/R-increased expression of proinflammatory cytokines in BV2 cells", "setting": "BV2 cells (OGD/R)", "result": "remarkably blocked these effects"}, {"measurement": "I/R-induced elevation of IBA1 expression in cerebral cortex", "setting": "[4]", "result": "greatly blunted"}, {"measurement": "apoptosis of HT22 cells after OGD/R", "setting": "HT22 cells (OGD/R) [5]", "result": "restrained apoptosis"}, {"measurement": "number of NeuN-positive cells", "setting": "[6]", "result": "greater than that in the vehicle-treated group"}, {"measurement": "protection of neurons in co-culture with microglia, proinflammatory cytokines", "setting": "[7]", "result": "protects neurons"}, {"measurement": "concentrations at which VK inhibited growth of HT22 cells", "setting": "[8]", "result": "73.5 to 735", "unit": "µM"}]}]}
